Measurements reported in patent US20190060340A1, “NOVEL AMINOGLYCOSIDES AND USES THEREOF IN THE TREATMENT OF GENETIC DISORDERS” (Technion Research & Development Foundation Limited, priority 2007, published 2019).
Converted amounts (≈) assume the structure as drawn. Like-named read-outs stand apart in the source and are kept apart here.

Experiments:
[1] = test system: R3X nonsense mutation (a premature UGA C stop codon) of the PCDH15 gene; assay: In vitro suppression and translation, pDB650-R3X reporter plasmid in rabbit reticulocyte lysate coupled transcription/translation system; type: biochemical, human; settings: for Conc. (concentration at which maximal suppression level was observed) / Supp. level (%), maximal in-vitro mutation suppression: R3X mutation; for Conc. (concentration at which maximal suppression level was observed): in vitro; for Supp. level (%), maximal in-vitro mutation suppression: 35-kDa product out of total protein; for Supp. level (%), maximal in-vitro mutation suppression / Trans. level (%): at Conc. of maximal suppression; for Trans. level (%): total protein relative to no compound
Method: Initially, Compounds 1-9 were tested for their ability to suppress this nonsense mutation in vitro, using a reporter construct carrying the R3X nonsense mutation (a premature UGA C stop codon) of the PCDH15 gene. Mutations in the PCDH15 gene which encodes protocardherin 15, cause type 1 Usher syndrome (USH1), which is characterized by profound prelingual hearing loss, vestibular areflexia, and prepubertal onset of retinitis pigmentosa (RP). Four different PCDH15 USH1-causing nonsense mutations, R3X, R245X, R643X, and R929X, have been reported in humans.
Suppression of nonsense mutations by Compounds 1-9 was tested in vitro using a reporter plasmid harboring the R3X mutation of the PCDH15 gene. To create this plasmid, the oligonucleotides 5′-[…]-3′ (SEQ ID NO: 1) and 5′-[…]-3′ (SEQ ID NO: 2) were annealed to each other and inserted into the BamHI and HindIII sites of plasmid pDB650 [6].
The resulting reporter plasmid pDB650-R3X contained a TGA C nonsense mutation between a 25-kDa polypeptide encoding open reading frame (ORF) and a 10-kDa polypeptide encoding ORF.
The plasmid was transcribed and translated in a rabbit reticulocyte lysate coupled transcription/translation system (Promega) in the presence of [^35S]-methionine, and the reaction products were separated by SDS-PAGE and quantified using Phosphorlmager analysis. The mutation suppression level was calculated as the relative proportion of the 35-kDa product out of total protein (the sum of 35-kDa and 25-kDa), and the translation level was calculated as the relative proportion of the total protein at each tested compound concentration out of the total protein without the presence of the tested compounds.
The tested concentrations of paromomycin were 0, 5, 10, 20, 30 and 40 μg/ml, tested concentrations of gentamicin were 0, 5, 10, 20, and 30 μg/ml, and the tested concentrations of Compounds 1-9 were in the range of 0-160 μg/ml.
Compound 37 was tested for its ability to suppress a nonsense mutation in-vitro, using a reporter construct carrying either R3X nonsense mutation (a premature UGA C stop codon) or R245X nonsense mutation (a premature UGA A stop codon) of the PCDH15 gene, using gentamicin, paromomycin and Compound 3 as standards and following the experimental procedures presented hereinabove.
For the rat-PGM-β-Gal in vitro readthrough system, the pDB series of reporter plasmids harbor the following elements under SP6 promoter control: an open reading frame (ORF) derived from the 5′ end of the rat PGM gene, which encodes a 25-kDa polypeptide; another small ORF, encoding the 10-kDa alpha complementation region of β-galactosidase, and terminated by tandem, in-frame stop codons (UAA UAG); located between the two ORFs is a DNA fragment derived from PCDH15 cDNA, including the tested stop mutation or the corresponding wild-type codon, and six upstream and downstream flanking codons (except for p.R3X constructs, in which there are only two upstream PCDH15-flanking codons). The fragments were created by annealing the following couples of complementary oligonucleotides:
The fragments were inserted into the BamHI and HindIII restriction sites of the pDB read-through construct. Reporter plasmids harboring each of the four nonsense mutations and the corresponding wt alleles were in vitro transcribed and translated using the TNT SP6 Coupled Reticulocyte lysate System (Promega) in the presence of [^35S]-methionine and increasing concentrations of aminoglycosides as described previously. […] The degree of suppression was calculated as the relative proportion of the 35-kDa product out of total reaction products (35-kDa and 25-kDa polypeptides). The results are averages of at least three independent experiments.

[2] = test system: Bacillus Subtilis ATCC 6633; assay: Antibacterial activity, MIC by double-microdilution method; type: cell-based; settings: Bacillus subtilis
Method: (§1) In order to compare the observed aminoglycoside-induced stop codon read-through activity in mammalian cells to antibacterial activity thereof, Compounds 1-9 were further investigated as antibacterial agents against both Gram-negative (E. coli) and Gram-positive (Bacillus subtilis) bacteria, and the minimal inhibitory concentration (MIC) values were determined by using a microdilution assay with paromomycin and gentamicin as controls, and the results are presented in Table 18 hereinabove.
(§2) The bacterial strains used were Escherichia coli ATCC 25922, and Bacillus Subtilis ATCC 6633. […] All the experiments were performed in triplicates and analogous results were obtained in two to four different experiments.

[3] = test system: Escherichia coli ATCC 25922; assay: as above; type: cell-based; settings: for MIC: Escherichia coli
Method: as §1, §2

[4] = test system: original p2Luc plasmid containing a TGA C nonsense mutation; assay: Dual luciferase in vitro transcription/translation assay; type: biochemical
Description: (§3) DNA fragments derived from the subsequent genes, including the tested stop mutation or the corresponding wild-type codon, and four upstream and downstream flanking codons (except for p.R3X constructs, in which there are only two upstream PCDH15-flanking codons) were cloned into p2Luc plasmid between renilla and firefly luciferase genes as described previously. The formed plasmids, as well as the original p2Luc plasmid containing a TGA C nonsense mutation, were transcribed and translated in vitro and the stop codon suppression efficiency was calculated as described previously.
(§4) For the dual luciferase in vitro transcription/translation assay, DNA fragments derived from PCDH15, CFTR, Dystrophin and IDUA cDNAs, including the tested stop mutation or the corresponding wild-type codon, and four upstream and downstream flanking codons (except for p.R3X constructs, in which there are only two upstream PCDH15-flanking codons) were created by annealing the couples of complementary oligonucleotides presented above.
(§5) Fragments were inserted into the SalI and SacI restriction sites of the p2Luc plasmid between renilla and firefly luciferase genes. The afforded plasmids, as well as the original p2Luc plasmid containing a TGA C nonsense mutation, were transcribed and translated using the TNT Reticulocyte Lysate Quick Coupled Transcription/Translation System (Promega™). Each transcription/translation reaction (10 μl, total volume) contained 8 μl TNT T7 Quick Master Mix, 0.2 μl methionine (1 mM), 0.8 μl DNA template (2 μg/μl), 1 μl of either water (blank) or 1 μl solution of increasing concentrations of the tested aminoglycosides in water. Luciferase activity was determined following 90 minutes incubation at 30° C. using the Dual Luciferase Reporter Assay System (Promega™). The total luminescence produced by each one of the proteins was measured separately using the FLx800 multidetection plate reader (Bio-Tek) and the stop codon suppression efficiency was calculated as described previously. The results are averages of at least three independent experiments.

[5] = test system: R3X (PCDH15, Usher Syndrome); assay: as above; type: biochemical, human
Description: as §3, §4, §5

human fibroblast cells = settings: cited from earlier work
[6] = available toxicity data on aminoglycosides; unit inferred; cited from earlier work
[7] = ATCC6633, ATCC 6633, read-out: MIC B. Subtilis
[8] = ATCC25922, ATCC 25922, read-out: MIC E. coli

Row | Compound | Conc. (concentration at which maximal suppression level was observed) [1] [µg/mL] | Supp. level (%), maximal in-vitro mutation suppression [1] [%] | Trans. level (%) [1] [%] | MIC [2, 7] [µg/mL] | MIC [3, 8] [µg/mL] | LD50 [6] [mg/kg] | other results
1 | NC1CC(N)[C@@H](O[C@H]2OC(CO)[C@@H](O)C(O)C2N)C(O)C1O (some centres unmarked) [Compound 1, Paromamine] | 80 | 6.2 | 74 ± 15 | – | – | – | Supp. level (%), maximal in-vitro mutation suppression ([1]; listed as Paromamine): 6.2 ± 0.2%; MIC ([2]; ATCC6633, read-out: MIC B. Subtilis): 128 µg/mL (≈ 396 µM); MIC ([3]; ATCC25922, read-out: MIC E. coli): 512 µg/mL (≈ 1580 µM); Conc. (μM) at which maximum suppression level was achieved ([4]; dual luciferase in vitro system, all constructs of Table 21): 490 µM; Maximum in vitro suppression (%) UGAC ([4]; p2luc): 1.1 ± 0.1%; Maximum in vitro suppression (%) R3X [5]: 0.6 ± 0.1%
2 | NC1C[C@@H](N)[C@@H](O)[C@@H](O[C@@H]2O[C@H](CO)[C@H](O)C2O)[C@@H]1O[C@H]1OC(CO)[C@@H](O)[C@H](O)[C@@H]1N (stereo partly drawn) [Compound 2, (3S,4R,5S,6S)-5-amino-6-((1R,2R,3R,4R)-4,6-diamino-2-((2S,4R,5R)-3,4-dihydroxy-5-(hydroxymethyl)-tetrahydrofuran-2-yloxy)-3-hydroxycyclohexyloxy)-2-(hydroxymethyl)-tetrahydro-2H-pyran-3,4-diol] | 80 | 1.3 ± 0.1 | 100 ± 10 | 64 (≈ 141 µM) | 256 (≈ 562 µM) | – | –
3 | NC1C[C@@H](N)[C@@H](O[C@@H]2O[C@H](CO)[C@H](O)C2O)[C@@H](O)[C@@H]1O[C@H]1OC(CO)[C@@H](O)[C@H](O)[C@@H]1N (stereo partly drawn) [Compound 4, (3S,4R,5S,6S)-5-amino-6-((1R,2S,3R,4R)-4,6-diamino-3-((2R,4R,5R)-3,4-dihydroxy-5-(hydroxymethyl)-tetrahydrofuran-2-yloxy)-2-hydroxycyclohexyloxy)-2-(hydroxymethyl)-tetrahydro-2H-pyran-3,4-diol] | 80 | 1.5 ± 0.1 | 74 ± 7 | 96 (≈ 211 µM) | 256 (≈ 562 µM) | – | –
4 | NC[C@H]1O[C@@H](OC2C(O)[C@H](O[C@H]3OC(CO)[C@@H](O)C(O)C3N)C(N)C[C@H]2N)C(O)C1O (some centres unmarked) [Compound 5] | 80 | 4.4 ± 2 | 75 ± 9 | 192 (≈ 422 µM) | > 512 | – | –
5 | NC[C@H]1O[C@@H](OC2C(N)[C@@H](O[C@@H]3C(N)C[C@@H](N)C(O)C3O)OC(CO)[C@H]2O)C(O)C1O (some centres unmarked) [Compound 7] | 80 | 2.9 ± 2 | 98 ± 10 | 48 (≈ 106 µM) | 192 (≈ 422 µM) | – | –
6 | NC1C(N)[C@H](O)C(CO)O[C@@H]1O[C@@H]1C(N)C[C@@H](N)C(O)C1O (some centres unmarked) [Compound 8] | 80 | 2.0 ± 2 | 71 ± 7 | 48 (≈ 149 µM) | 192 (≈ 596 µM) | – | fold lower antimicrobial activity as compared to paromomycin ([3]; from Table 18, E. coli and B. subtilis): 6-16 fold
7 | NC1C(OCOC2C(N)[C@H](O[C@H]3C(N)C[C@H](N)C(O)C3O)OC(CO)[C@@H]2O)[C@H](O)C(CO)O[C@@H]1O[C@@H]1C(N)C[C@@H](N)C(O)C1O (some centres unmarked) [Compound 9] | 80 | <1 | 22 ± 2 | 48 (≈ 72.9 µM) | 96 (≈ 146 µM) | – | –
8 | CN[C@@H]1[C@@H](O)[C@@H](O[C@@H]2[C@@H](O)[C@H](O[C@H]3O[C@H]([C@@H](C)O)[C@@H](O)[C@H](O)[C@H]3N)[C@@H](N)C[C@H]2N)OC[C@]1(C)O [Compound G-418, G-418] | – | – | – | – | – | – | LD50 against human fibroblast cells (human fibroblast cells; ref [49]): 0.04 mg/mL
9 | NCCC(O)C(=O)NC1CC(N)C(OC2OC(CN)C(O)C(O)C2N)C(O)C1O (centres unmarked) [N1-AHB-neamine] | – | – | – | – | – | 260 | –
10 | NCC[C@H](O)C(=O)N[C@@H]1C[C@H](N)[C@@H](O[C@H]2O[C@H](CN)[C@@H](O)[C@H](O)[C@H]2O)[C@H](O)[C@H]1O[C@H]1O[C@H](CO)[C@@H](O)[C@H](N)[C@H]1O [amikacin] | – | – | – | – | – | 300 | –
11 | NC[C@H]1O[C@H](O[C@H]2[C@H](O)[C@@H](O[C@H]3O[C@H](CO)[C@@H](O)[C@H](N)[C@H]3O)[C@H](N)C[C@@H]2N)[C@H](N)[C@@H](O)[C@@H]1O [kanamycin B] | – | – | – | – | – | 132 | –
12 | N[C@@H]1[C@@H](O)[C@@H](O[C@@H]2[C@@H](O)[C@H](O[C@H]3O[C@H](CO)[C@@H](O)[C@H](O)[C@H]3N)[C@@H](N)C[C@H]2N)O[C@H](CO)[C@H]1O [kanamycin C] | – | – | – | – | – | 225 | –
13 | NC[C@H]1O[C@H](O[C@H]2[C@H](O)[C@@H](O[C@H]3O[C@H](CO)[C@@H](O)[C@H](N)[C@H]3O)[C@H](N)C[C@@H]2N)[C@H](O)[C@@H](O)[C@@H]1O [kanamycin] | – | – | – | – | – | – | LD50 against human fibroblast cells (human fibroblast cells): 2.5 to 5.0 mg/mL
14 | NC[C@H]1O[C@H](O[C@H]2[C@H](O)[C@@H](O)[C@H](N)C[C@@H]2N)[C@H](N)[C@@H](O)[C@@H]1O [neamine] | – | – | – | – | – | 125 | –
